Read-outs that look alike come from different tables or passages of the source.
How the values were obtained:
Format in all cases: cell-based
[1] = tested on: MFM-223; assay: Antiproliferation, CellTiter-Glo, 5 days, MFM-223; conditions: MFM-223, AR+ TNBC
Procedure: (§1) For MDA-MB-453, MFM-223, SUM159PT, MDA-MB-468, and HCC1937, 4,000, 3,000, 1,000, 3,000, and 3,000 cells were plated per well in 96-well microplates (Corning Inc), respectively. Cells were treated with serial dilutions of tested compounds with the maximum working concentration of 10 μM. Cell survival was measured 5 days later using a CellTiter-Glo luminescent cell viability assay kit (Promega Corporation). Luminescence was recorded by FLUOstar Omega microplate reader (BMG Labtech). Half maximal inhibitory concentration (IC50) was determined with GraphPad Prism using baseline correction (by normalizing to dimethyl sulfoxide (DMSO) control)

[2] = tested on: MDA-MB-468; assay: Antiproliferation, CellTiter-Glo, 5 days, MDA-MB-468; conditions: MDA-MB-468, AR− TNBC
Procedure: as §1

[3] = tested on: MDA-MB-453 cells; assay: Inhibition of proliferation of MDA-MB-453 cells (CCK-8 or CTG, 7-10 days); conditions: for IC50: co-incubation 7-10 days, CCK-8 or CTG, read-out: IC50 values against MDA-MB-453 cells
Procedure: Triple negative breast cancer MDA-MB-453 cells in logarithmic growth stage were inoculated into a 96-well plate at a concentration of 4×10^3 cells/well, and then incubated in an incubator at 37° C., 5% CO2, and saturated humidity for 24 h or 48 h. To the negative control well, was added RPMI 1640 cell medium containing 10% fetal bovine serum in the same volume as the drug. After cultured for 24 h or 48 h, to the 96-well plate, were added AR PROTACs compounds 162, 177, 230, 259, 279, 281, 282, 325, 357, 400, ARV-110, ARV-766 and AR inhibitor HC-1119, respectively. The concentrations of compounds 177, 230, 259, 279, 281, 282, 325, 357, 400, ARV-110, and ARV-766 are 0 μM, 0.002 μM, 0.005 μM, 0.014 μM, 0.041 μM, 0.123 μM, 0.370 μM, 1.111 μM, 3.333 μM or 10 μM; while the concentrations of HC-1119 are 0 μM, 1.23 μM, 3.70 μM, 11.11 μM, 33.33 μM or 100 μM.
(§2) After addition of the drugs and co-incubation for 7-10 days, 10 μL of CCK-8 was added to each well, and then the plate was further cultured for 2 h. The absorbance value (OD) of each well was measured using a microplate reader at a wavelength of 450 nm. The survival rate was calculated using Prism software, the relative survival rate=(OD value of drug well/OD value of control well)×100%. Alternatively, 100 μL of medium was removed from each well, and then 50 μL of CTG was added. The plate was shaken in the dark for 2 min, allowed to stand for 10 min, and then measured using a microplate reader in Luminescence mode. Prism software was used to calculate the survival rate, the relative survival rate=(the RLU value of drug well/the RLU value of control well)×100%.

[4] = tested on: SUM159PT; assay: Antiproliferation, CellTiter-Glo, 5 days, SUM159PT; conditions: AR+ TNBC
Procedure: as §1, with “Cells” for “For MDA-MB-453, MFM-223, SUM159PT, MDA-MB-468, and HCC1937, 4,000, 3,000, 1,000, 3,000, and 3,000 cells were plated per well in 96-well microplates (Corning Inc), respectively. Cells”

[5] = tested on: MDA-MB-453; assay: Antiproliferation, CellTiter-Glo, 5 days, MDA-MB-453; conditions: MDA-MB-453, AR+ TNBC
Procedure: as §1

[6] = tested on: HCC1937; assay: Antiproliferation, CellTiter-Glo, 5 days, HCC1937; conditions: HCC1937, AR− TNBC
Procedure: as §1

[7] = tested on: MDA-MB-453 cells; assay: Combination with PI3K inhibitor Idelalisib, proliferation of MDA-MB-453 cells, Combination Index; conditions: molar ratio to Idelalisib 1:270-1:3.333, 7-10 days
Procedure: (§3) Triple negative breast cancer MDA-MB-453 cells in logarithmic growth stage were inoculated into a 96-well plate at a concentration of 4×10^3 cells/well, and then incubated in an incubator at 37° C., 5% CO2, and saturated humidity for 24 h. To the negative control wells, were added RPMI 1640 cell culture medium containing 10% fetal bovine serum in the same volume as the drug. After cultured for 24 h, to the 96-well plate, were sequentially added AR PROTACs compounds 279, 281, 282, ARV-110, ARV-766 and PI3K inhibitor Idelalisib, respectively.
as §2, with “adding” for “addition of”, “co-incubating” for “co-incubation”

[8] = tested on: MDA-MB-453 cells; assay: Combination with PI3K inhibitor Alpelisib, proliferation of MDA-MB-453 cells, Combination Index; conditions: molar ratio to Alpelisib 1:27-9:1, 7 days
Procedure: as §3, with “Alpelisib,” for “Idelalisib,”
as §2, with “7” for “7-10”

[9] = tested on: MDA-MB-453 cells; assay: Combination with chemotherapeutic drug Paclitaxel, proliferation of MDA-MB-453 cells, Combination Index; conditions: molar ratio to Paclitaxel 20:1-5000:1, 7 days
Procedure: as §3, with “ARV-110” for “ARV-110, ARV-766”, “chemotherapeutic drug Paclitaxel,” for “PI3K inhibitor Idelalisib,”
as §2, with “adding” for “addition of”, “co-incubating” for “co-incubation”, “7” for “7-10”

[10] = tested on: MDA-MB-453 cells; assay: Combination with PI3K inhibitor Duvelisib, proliferation of MDA-MB-453 cells, Combination Index; conditions: molar ratio to Duvelisib 1:30-1:1.111, 7-10 days
Procedure: as §3, with “ARV-110” for “ARV-110, ARV-766”, “Duvelisib,” for “Idelalisib,”
as §2, with “adding” for “addition of”, “co-incubating” for “co-incubation”

[11] = tested on: AR+ TNBC cells (MDA-MB-453, SUM159PT and MFM-223) and AR- TNBC (MDA-MB-468 and HCC1937); assay: Antiproliferation in AR positive and negative TNBC cells (summary over the cell line panel); conditions: MDA-MB-453, SUM159PT, MFM-223, MDA-MB-468, HCC1937
Procedure: as §1

CNC(=O)c1ccc(N2C(=S)N(c3ccc(C#N)c(C(F)(F)F)c3)C(=O)C2(C)C)cc1F [HC-1119]
IC50 [1]: > 10000 nM | IC50 [2]: > 10000 nM | IC50 [3]: > 2000 nM | IC50 [4]: > 10000 nM | IC50 [5]: > 10000 nM | IC50 [6]: > 10000 nM

N#Cc1ccc(O[C@H]2CC[C@H](NC(=O)c3ccc(N4CCC(CN5CCC6(CC5)CN(c5ccc7c(c5)C(=O)N(C5CCC(=O)NC5=O)C7=O)C6)CC4)nn3)CC2)cc1Cl (stereo partly drawn) [Compound 230]
IC50 ([3]; Homo sapiens): > 2000 nM

COc1cc(O[C@H]2C(C)(C)[C@H](NC(=O)c3ccc(N4CCC(CN5CCN(c6ccc(C(=O)N[C@H]7CCC(=O)NC7=O)c(F)c6)CC5)CC4)cc3)C2(C)C)ccc1C#N [ARV-766]
IC50 ([1]; Homo sapiens, 120 h): 5400 nM | effect of the combination with Idelalisib on inhibiting proliferation (CI<1 = synergistic) [7]: synergistic effect | IC50 ([2]; Homo sapiens, 120 h): > 10000 nM | effect of the combination with Alpelisib on inhibiting proliferation (CI<1 = synergistic) [8]: synergistic effect | IC50 ([3]; Homo sapiens): ≤ 2000 nM | IC50 ([4]; Homo sapiens, SUM-159-PT, 120 h): 380 nM | IC50 ([5]; Homo sapiens, 120 h): 1100 nM | IC50 ([6]; Homo sapiens, 120 h): > 10000 nM

N#Cc1ccc(O[C@H]2CC[C@H](NC(=O)c3ccc(N4CCC5(CCN(CC6CCN(c7cc8c(cc7F)C(=O)N(C7CCC(=O)NC7=O)C8=O)CC6)C5)C4)nn3)CC2)cc1Cl (stereo partly drawn) [Compound 162]
IC50 ([3]; Homo sapiens): > 2000 nM

N#Cc1ccc(O[C@H]2CC[C@H](NC(=O)c3cnc(N4C[C@@H]5[C@@H](CN6CCN(c7ccc8c(c7)C(=O)N(C7CCC(=O)NC7=O)C8=O)CC6)[C@@H]5C4)cn3)CC2)cc1Cl (stereo partly drawn) [Compound 177]
IC50 ([3]; Homo sapiens): > 2000 nM

N#Cc1ccc(O[C@H]2CC[C@H](NC(=O)c3ccc(N4CCC(N5CCC6(CC5)CN(c5ccc7c(c5)C(=O)N(C5CCC(=O)NC5=O)C7=O)C6)CC4)nn3)CC2)cc1Cl (stereo partly drawn) [Compound 281]
effect of the combination with Idelalisib on inhibiting proliferation (CI<1 = synergistic) [7]: synergistic effect | effect of the combination with Paclitaxel on inhibiting proliferation (CI<1 = synergistic) [9]: synergistic effect | effect of the combination with Duvelisib on inhibiting proliferation (CI<1 = synergistic) [10]: synergistic effect | effect of the combination with Alpelisib on inhibiting proliferation (CI<1 = synergistic) [8]: synergistic effect | IC50 ([3]; Homo sapiens): ≤ 2000 nM

N#Cc1ccc(O[C@H]2CC[C@H](NC(=O)c3ccc(N4CC5CN(CC6CCN(c7cc8c(cc7F)C(=O)N(C7CCC(=O)NC7=O)C8=O)CC6)CC5C4)nn3)CC2)cc1Cl (stereo partly drawn) [Compound 259]
IC50 ([3]; Homo sapiens): > 2000 nM

COc1cc(O[C@H]2C(C)(C)[C@H](N3Cc4nc(C#C[C@H]5CC[C@H](N6CCN(c7ccc8c(c7)C(=O)N(C7CCC(=O)NC7=O)C8=O)CC6)CC5)ccc4C3=O)C2(C)C)ccc1C#N (stereo partly drawn) [Compound 400]
IC50 ([3]; Homo sapiens): ≤ 2000 nM

N#Cc1ccc(O[C@H]2CC[C@H](NC(=O)c3ccc(N4CC5(CCN(CC6CCN(c7ccc8c(c7)C(=O)N(C7CCC(=O)NC7=O)C8=O)CC6)CC5)C4)nn3)CC2)cc1Cl (stereo partly drawn) [Compound 282]
effect of the combination with Idelalisib on inhibiting proliferation (CI<1 = synergistic) [7]: synergistic effect | effect of the combination with Paclitaxel on inhibiting proliferation (CI<1 = synergistic) [9]: synergistic effect | effect of the combination with Duvelisib on inhibiting proliferation (CI<1 = synergistic) [10]: synergistic effect | effect of the combination with Alpelisib on inhibiting proliferation (CI<1 = synergistic) [8]: synergistic effect | IC50 ([3]; Homo sapiens): ≤ 2000 nM

CC1(C)[C@H](Oc2ccc(C#N)c(Cl)c2)C(C)(C)[C@H]1N1Cc2nc(C#C[C@H]3CC[C@H](N4CCN(c5ccc6c(c5)C(=O)N(C5CCC(=O)NC5=O)C6=O)CC4)CC3)ccc2C1=O (stereo partly drawn) [Compound 325]
IC50 ([3]; Homo sapiens): > 2000 nM

CC1(C)[C@H](Oc2ccc(C#N)c(Cl)c2)C(C)(C)[C@@H]1N1Cc2nc(C#C[C@H]3C[C@H](N4CCN(c5cc6c(cc5F)C(=O)N(C5CCC(=O)NC5=O)C6=O)CC4)C3)ccc2C1=O (stereo partly drawn) [Compound 357]
IC50 ([3]; Homo sapiens): ≤ 2000 nM

[2H]C([2H])([2H])NC(=O)c1ccc(N2C(=S)N(c3ccc(C#N)c(C(F)(F)F)c3)C(=O)C2(C)C)cc1F [HC-1119]
anti-proliferation activity in all five cell lines [11]: failed to show anti-proliferation activity | inhibitory effect on the proliferation of MDA-MB-453 cells [3]: weak inhibitory effect
